Source: patent publication US20240216900A1, “SABRE CATALYSTS CONTAINING FLUORINATED CARBON CHAINS FOR DELIVERY OF METAL-FREE MRI CONTRAST AGENTS” (The U.S.A., as represented by the Secretary, Department of …, priority 2022, published 2024)

Test: Relaxation dynamics of hyperpolarized [1-13C]pyruvate (build-up time Tb and T1)
Conditions: 0.4 μT
Description: In addition, the relaxation dynamics of the [1-^13C]pyruvate were also studied.
In addition, relaxation dynamics at earth field and 1.8 T are about the same as a non-fluorinated SABRE catalyst T1=28.9±1.6 s and 66.5±7 s, respectively.

In the case of `CC(=O)C(=O)O` [[1-^13C]pyruvate, sodium [1-^13C]pyruvate], the “total P13C (bound+free) build-up time Tb” value (Example 7: Example 4 catalyst, DMSO, methanol) is reported as 6.6 ± 3.0 s, the “total P13C (bound+free) build-up time Tb” value (Example 25: Example 4 catalyst, DMSO, NFBME/MeOD fluorous mixture) is reported as 3.0 ± 0.8 s and the “total P13C (bound+free) build-up time Tb” value (Example 31: Example 4 catalyst, DMSO, CD3OD/Novec 7100) is reported as 3.8 ± 0.6 s. The “total P13C (bound+free) build-up time Tb” value (Example 32: Example 4 catalyst, PTMSO, CD3OD/Novec 7100) was 8.9 ± 2.5 s.
